The subject of series [1] is Balb-C mice. The series is described as follows: Intramuscular and subcutaneous administration of modified luciferase mRNA in PBS (whole-body flux). The format is in vivo, mouse. As to the method: The mice were imaged at 2 hours, 8 hours, 24 hours, 48 hours, 72 hours, 96 hours, 120 hours and 144 hours for intramuscular delivery and 2 hours, 8 hours, 24 hours, 48 hours, 72 hours, 96 hours and 120 hours for subcutaneous delivery. Twenty minutes prior to imaging, mice were injected intraperitoneally with a D-luciferin solution at 150 mg/kg. Animals were then anesthetized and images were acquired with an IVIS Lumina II imaging system (Perkin Elmer). Bioluminescence was measured as total flux (photons/second) of the entire mouse. The average total flux (photons/second) for intramuscular administration is shown in Table 113 and the average total flux (photons/second) for subcutaneous administration is shown in Table 114. The background signal was 3.79E+05 (p/s). The peak expression for intramuscular administration was seen between 24 and 48 hours for all chemistry and expression was still detected at 144 hours.

A further series has as its system HeLa cells. The series is described as follows: Chemical modifications on luciferase mRNA, HeLa transfection (RLU). The format is cell-based. As to conditions: 83 ng luciferase mRNA, 18 to 22 hours. As to the method:
The day before transfection, 20,000 HeLa cells (ATCC no. CCL-2; Manassas, Va.) were harvested by treatment with Trypsin-EDTA solution (Life Technologies, Grand Island, N.Y.) and seeded in a total volume of 100 ul EMEM medium (supplemented with 10% FCS and 1× Glutamax) per well in a 96-well cell culture plate (Corning, Manassas, Va.). The cells were grown at 37° C. in 5% CO2 atmosphere overnight. […] Lipofectamine 2000 (LifeTechnologies, Grand Island, N.Y.) was used as transfection reagent and 0.2 ul were diluted in 10 ul final volume of OPTI-MEM. After 5 minutes of incubation at room temperature, both solutions were combined and incubated an additional 15 minute at room temperature. Then the 20 ul combined solution was added to the 100 ul cell culture medium containing the HeLa cells and incubated at room temperature.
After 18 to 22 hours of incubation cells expressing luciferase were lysed with 100 ul of Passive Lysis Buffer (Promega, Madison, Wis.) according to manufacturer instructions. Aliquots of the lysates were transferred to white opaque polystyrene 96-well plates (Corning, Manassas, Va.) and combined with 100 ul complete luciferase assay solution (Promega, Madison, Wis.). […] The plate reader was a BioTek Synergy H1 (BioTek, Winooski, Vt.). The background signal of the plates without reagent was about 200 relative light units per well.

The subject of series [2] is Balb-C mice. The series is described as follows: Lipoplex study, whole-body flux (Table 129). In kind it is in vivo, mouse. As to conditions: lipoplexed luciferase mRNA, 0.10 mg/kg. As to the method: (§1) The formulation was administered intravenously (I.V.), intramuscularly (I.M.) or subcutaneously (S.C.) to Balb-C mice at a dose of 0.10 mg/kg.
(§2) Twenty minutes prior to imaging, mice were injected intraperitoneally with a D-luciferin solution at 150 mg/kg. Animals were then anesthetized and images were acquired with an IVIS Lumina II imaging system (Perkin Elmer). Bioluminescence was measured as total flux (photons/second) of the entire mouse. The mice were imaged at 8 hours, 24 hours and 48 hours after dosing and the average total flux (photons/second) was measured for each route of administration and chemical modification. The background signal was about 3.91E+05 p/s. Organs were imaged at 6 hours and the average total flux (photons/second) was measured for the liver, spleen, lung and kidney. A control for each organ was also analyzed.

Series [3] deals with liver, spleen, lung and kidney. Put plainly: Lipoplex study, organ flux at 6 hours (Table 130). The format is in vivo, mouse. As to conditions: lipoplexed luciferase mRNA, 0.10 mg/kg. The procedure:
as §1, §2

The test system of series [4] is Factor IX. Put plainly: Example 16 lipid nanoparticle in vivo study, serum Factor IX ELISA. More on the design: species or system mice. The procedure: Mice were sacrificed at 8 hrs after dosing. […] Protein expression was determined by ELISA.
As used in Table 30, the symbol “˜” means about.
Background: An ELISA detects its analyte on a solid surface through an enzyme-linked reagent.

A further series has as its system mouse myoblast (C2C12). Put plainly: Example 44 signal sequence exchange study, secreted G-CSF ELISA. In kind it is cell-based. The settings on record: MM, 250 ng modified mRNA, supernatant after 24 hrs. The text has this: (§3) These variants included the G-CSF constructs encoding either the wild-type N terminal secretory signal peptide sequence ([…]; SEQ ID NO: 21), no secretory signal peptide sequence, or secretory signal peptide sequences taken from other mRNAs. These included sequences where the wild type GCSF signal peptide sequence was replaced with the signal peptide sequence of either: human α-1-anti trypsin (AAT) ([…]; SEQ ID NO: 22), human Factor IX (FIX) ([…]; SEQ ID NO: 23), human Prolactin (Prolac) ([…]; SEQ ID NO: 24), or human Albumin (Alb) ([…]; SEQ ID NO: 25).
(§4) 250 ng of modified mRNA encoding each G-CSF variant was transfected into HEK293A (293A in the table), mouse myoblast (MM in the table) (C2C12, CRL-1772, ATCC) and rat myoblast (RM in the table) (L6 line, CRL-1458, ATCC) cell lines in a 24 well plate using 1 ul of Lipofectamine 2000 (Life Technologies), each well containing 300,000 cells. […] The data shown in Table 68 reveal that cells transfected with G-CSF mmRNA encoding the Albumin signal peptide secrete at least 12 fold more G-CSF protein than its wild type counterpart.

For the next series, the system named is rat myoblast (L6 line). The series is described as above. The format is cell-based. The settings on record: RM, 250 ng modified mRNA, supernatant after 24 hrs.
Description: as §3, §4

Series [5] concerns Factor IX. Put plainly: Example 39 in vivo study of Factor IX mmRNA IM, serum Factor IX. The settings on record: mice IM, 2×100 ug/mouse, 13 hours. As to the method:
Human Factor IX mmRNA (Gen1; fully modified 5-methycytosine and pseudouridine) formulated in formulation buffer was delivered to mice via intramuscular injection.
The mice were bled at 13 hours after the intramuscular injection to determine the concentration of human the polypeptide in serum in pg/mL.

Another series relates to HEK293A. The series is described as follows: Example 44 signal sequence exchange study, secreted G-CSF ELISA. The format is cell-based, human. As to conditions: 293A, 250 ng modified mRNA, supernatant after 24 hrs.
Description: as §3, §4

As to “5mC/pU: Luciferase mRNA SEQ ID NO: 16, polyA about 140, fully modified with 5-methylcytosine and pseudouridine”, the Flux is on record as 1.98E+07 p/s in the series with Balb-C mice [1] (Balb-C mice, intramuscular 2.5 mg/kg in PBS, 2 hours); 5.26E+06 p/s with Balb-C mice [1] (Balb-C mice, subcutaneous 2.5 mg/kg in PBS, 2 hours); 1.42E+07 p/s with Balb-C mice [1] (intramuscular 2.5 mg/kg, 8 hours); 2.92E+07 p/s in the series on Balb-C mice [1] (intramuscular 2.5 mg/kg, 24 hours); 2.64E+07 p/s with Balb-C mice [1] (intramuscular 2.5 mg/kg, 48 hours); 2.18E+07 p/s in the series with Balb-C mice [1] (intramuscular 2.5 mg/kg, 72 hours). In addition, the Flux in the series with Balb-C mice [1] (intramuscular 2.5 mg/kg, 96 hours) was 2.75E+07 p/s; in the series on Balb-C mice [1] (intramuscular 2.5 mg/kg, 120 hours), 2.19E+07 p/s; in the series on Balb-C mice [1] (intramuscular 2.5 mg/kg, 144 hours), 9.17E+06 p/s; with Balb-C mice [1] (subcutaneous 2.5 mg/kg, 8 hours) it was 2.32E+06 p/s; in the series with Balb-C mice [1] (subcutaneous 2.5 mg/kg, 24 hours), 2.67E+06 p/s; with Balb-C mice [1] (subcutaneous 2.5 mg/kg, 48 hours), 1.22E+06 p/s. Moreover, the Flux with Balb-C mice [1] (subcutaneous 2.5 mg/kg, 72 hours) was found to be 1.12E+06 p/s; in the series with Balb-C mice [1] (subcutaneous 2.5 mg/kg, 96 hours), 5.16E+05 p/s; in the series on Balb-C mice [1] (subcutaneous 2.5 mg/kg, 120 hours), 3.80E+05 p/s; with Balb-C mice [2] (I.M., 8 hrs), 1.90E+06 p/s; in the series with Balb-C mice [2] (I.M., 24 hrs) it was 9.33E+05 p/s; in the series with Balb-C mice [2] (I.M., 48 hrs), 8.51E+05 p/s. For the same substance, the Flux in the series with Balb-C mice [2] (I.V., 8 hrs, background about 3.91E+05 p/s) is 5.76E+06 p/s; in the series on Balb-C mice [2] (I.V., 24 hrs) it was 1.02E+06 p/s; in the series with Balb-C mice [2] (I.V., 48 hrs), 4.53E+05 p/s; with Balb-C mice [2] (S.C., 8 hrs), 2.85E+06 p/s; with Balb-C mice [2] (S.C., 24 hrs) it was 6.66E+05 p/s; in the series on Balb-C mice [2] (S.C., 48 hrs), 3.24E+05 p/s. In addition, the RLU with HeLa cells came out at 1601234 RLU. Also, the entries for the “Inj. Site Flux” value in series [3] (I.M.) and in series [3] (S.C.) were 1.15E+06 p/s and 4.46E+04 p/s, respectively. Besides, the “Kidney Flux” value was determined as 1.44E+04 p/s in [3] (I.M.), 1.77E+04 p/s in [3] (I.V.) and 1.69E+04 p/s in series [3] (S.C.). The figures for the “Liver Flux” value in series [3] (I.M.), in series [3] (I.V.) and in [3] (S.C.) were 2.46E+04 p/s, 5.26E+05 p/s and 1.55E+04 p/s, respectively. In addition, the “Lung Flux” value in series [3] (I.M.) is 1.50E+04 p/s; in [3] (I.V.), 4.28E+06 p/s; in series [3] (S.C.), 1.45E+04 p/s. For the same substance, the “Spleen Flux” value in series [3] (I.M.) worked out at 1.38E+04 p/s; in series [3] (I.V.), 2.04E+07 p/s; in series [3] (S.C.), 1.67E+04 p/s.
In the case of “Factor IX: human Factor IX mRNA SEQ ID NO: 10, polyA ~160 nt, Cap1, fully modified with 5-methylcytosine and pseudouridine”, the “Factor IX Serum Concentration 8-12 hours after administration” value in the series with Factor IX [4] (IM, 2 × 100 ug) is approximately 1.6 ng/mL; in the series on Factor IX [4] (IV (LNP), 1 ug), approximately 40 ng/mL; with Factor IX [4] (IV (LNP), 10 ug), approximately 400 ng/mL; in the series with Factor IX [4] (IV (LNP), 100 ug), ~3,000-10,000 ng/ml. For the same substance, the “Factor IX Protein Expression, Conc” value in the series on Factor IX [4] (mice IV LNP, 10 ug, serum 8 hrs) came to 383.04 ng/mL; in the series on Factor IX [4] (mice IV LNP, 100 ug, serum 8 hrs, dilution 50x), 3247.75 ng/mL; with Factor IX [4] (mice IV LNP, 100 ug, serum 8 hrs, dilution 250x) it was 11177.20 ng/mL. In addition, the “Factor IX protein expression” value with Factor IX [4] (mice IV LNP, 100 ug, serum 8 hrs, range given in text) fell in the range of 3000 to 11000 ng/mL. For the same substance, the “secreted G-CSF protein” value in the series with mouse myoblast (C2C12) stood at 6175 pg/mL; with rat myoblast (L6 line) it was 11675 pg/mL; in the series on HEK293A it was 11675 pg/mL. The “Factor IX in serum” value in the series with Factor IX [5] was 1600 pg/mL.
Regarding “Unmodified Luciferase: unmodified luciferase mRNA SEQ ID NO: 16, polyA about 140, Cap1”, in the series on HeLa cells, the RLU is on record as 33980 RLU.
